# Reference: ChEMBL document CHEMBL1938333, “Novel, potent and orally bioavailable indolizidinone-derived inhibitors of the hepatitis C virus NS3 protease” (Bioorg Med Chem Lett, 2012)
# Columns and labels:
# [1] = test system: Hepatitis C virus; experiment: Inhibition of HCV1b NS3/4A protease by FRET assay; parameters: species or system Hepatitis C virus subtype 1b
# [2] = Clearance in Sprague-Dawley rat at 1 mg/kg, iv; type: ADME, organism-based; parameters: dose 1 mg/kg, route intravenous; conditions: in vivo
# [3] = Oral bioavailability in Sprague-Dawley rat at 10 mg/kg; type: ADME, organism-based; conditions: in vivo
# [4] = Lipophilicity, log D of the compound; type: physicochemical; conditions: octanol/water
# [5] = test system: Hepatitis C virus; experiment: Antiviral activity against HCV1b infected in human 1b-Rluc cells by replicon assay; type: functional, organism-based, Hepacivirus hominis; conditions: genotype 1b
# [6] = Mean residence time in Sprague-Dawley rat at 1 mg/kg, iv; type: ADME, organism-based; parameters: dose 1 mg/kg, route intravenous; conditions: in vivo
SMILES,IC50 [1],clearance [2],bioavailability [3],logD [4],EC50 [5],MRT [6]
C=C[C@@H]1C[C@]1(NC(=O)[C@@H]1C[C@@H](Oc2cc(-c3csc(NC(C)C)n3)nc3c(Cl)c(OC)ccc23)CN1C(=O)[C@@H](NC(=O)OC1CCCC1)C(C)(C)C)C(=O)O,2.6 nM,,,,,
C=C[C@@H]1C[C@]1(NC(=O)[C@@H]1C[C@@H](Oc2cc(-c3nc(C(C)C)cs3)nc3c(C)c(OC)ccc23)[C@H]2CC[C@H](C(C)C)C(=O)N21)C(=O)NS(=O)(=O)C1CC1,3 nM,14.8 mL/min/kg,44%,4.5,213 nM,52.8 min
C=C[C@@H]1C[C@]1(NC(=O)[C@@H]1C[C@@H](Oc2cc(-c3nc(C(C)C)cs3)nc3c(C)c(OC)ccc23)[C@H]2CCCC(=O)N21)C(=O)NS(=O)(=O)C1CC1,47 nM,,,,,
C=C[C@@H]1C[C@]1(NC(=O)[C@@H]1C[C@@H](Oc2cc(OCC)nc3c(C)c(OC)ccc23)[C@H]2CC[C@H](C(C)C)C(=O)N21)C(=O)NS(=O)(=O)C1CC1,2 nM,,,,818 nM,
C=C[C@@H]1C[C@]1(NC(=O)[C@@H]1C[C@@H](Oc2cc(-c3nc(C(C)C)cs3)nc3c(Cl)c(OC)ccc23)[C@H]2CC[C@H](C(C)C)C(=O)N21)C(=O)NS(=O)(=O)C1CC1,2 nM,,,3.85,76 nM,
C=C[C@@H]1C[C@]1(NC(=O)[C@@H]1C[C@@H](Oc2cc(-c3nc(C(C)C)cs3)nc3c(Cl)c(OCCOC)ccc23)[C@H]2CC[C@H](C(C)C)C(=O)N21)C(=O)NS(=O)(=O)C1CC1,1 nM,11.2 mL/min/kg,21%,3.54,75 nM,75.6 min
C=C[C@@H]1C[C@]1(NC(=O)[C@@H]1C[C@@H](Oc2cc(-c3nc(C(C)C)cs3)nc3c(Cl)c(OCCN4CCOCC4)ccc23)[C@H]2CC[C@H](C(C)C)C(=O)N21)C(=O)NS(=O)(=O)C1CC1,3 nM,26.2 mL/min/kg,35%,3.26,81 nM,44.4 min
C=C[C@@H]1C[C@]1(NC(=O)[C@@H]1C[C@@H](Oc2cc(-c3cccc(C(C)C)n3)nc3c(Cl)c(OCCOC)ccc23)[C@H]2CC[C@H](C(C)C)C(=O)N21)C(=O)NS(=O)(=O)C1CC1,1 nM,,,,144 nM,
C=C[C@@H]1C[C@]1(NC(=O)[C@@H]1C[C@@H](Oc2cc(-c3nc(C(C)C)cs3)nc3c(Cl)c(OC)ccc23)[C@H]2CCCC(=O)N21)C(=O)NS(=O)(=O)C1CC1,32 nM,,,,,
